Reference: US11643636B2, “Method of creating human pluripotent stem cell derived brain pericyte-like cells” (Wisconsin Alumni Research Foundation, priority 2018, dated 2023)

Test system: hPSCs (H9 hESCs, IMR90C4 and CS03n2 iPSCs)
Test: Differentiation of hPSCs to NCSCs (p75-NGFR/HNK1 immunocytochemistry, flow cytometry)
Format: cell-based, human
Settings: CHIR99021 increased to 2 μM in E6-CSF, 15 days
Description: We first assessed the capability of E6, a reduced factor medium, to support differentiation of H9 human embryonic stem cells (hESCs) and IMR90C4 and CS03n2 induced pluripotent stem cells (iPSCs) to NCSCs. H9 hESCs were cultured for 15 days in E6 medium supplemented with heparin and pathway modulators previously implicated in hPSC differentiation to NCSCs (48): 1 μM CHIR99021, a GSK3β inhibitor to promote WNT signaling; 10 μM SB431543, an ALK5 antagonist to inhibit Activin/Nodal/TGFβ signaling; and 10 ng/mL FGF2 (E6-CSF).
To examine the effects of BMP inhibition on hPSC differentiation to NCSCs in minimal medium, E6-CSF medium was supplemented with 1 μM dorsomorphin, a BMP type I receptor inhibitor, to generate E6-CSFD.
One day prior to initiating NCSC differentiation, hPSCs maintained in E8 medium were singularized using Accutase and seeded at 9.1×10^4 cells/cm^2 onto Matrigel coated plates with E8+10 μM Y27632. […]
Cells were fixed fifteen minutes at room temperature with either 4% paraformaldehyde (PFA) or 100% ice-cold methanol depending on antibody staining conditions. Cells were rinsed three times in PBS without Ca^2+/Mg^2+ and stored at 4° C. in PBS until ready to stain. […]

Structure (SMILES): Cc1c[nH]c(-c2cnc(NCCNc3ccc(C#N)cn3)nc2-c2ccc(Cl)cc2Cl)n1 [CHIR99021]
- induction of p75-NGFR expression: did not aid in inducing p75-NGFR expression
